Results on one molecule are retold here after patent US9121026B2 (priority 2004, dated 2015).

Type in all cases: cell-based, Saccharomyces cerevisiae
Assay [1] deals with RE700A Δpdr1,3 tok1::PPDR5long-HXT7. Nature of the assay: Growth of RE700A Δpdr1,3 tok1::PPDR5long-HXT7 in the presence of 2-DG. As to the method: (B) Relative growth of RE700A tok1::PPDR5long-HXT7, RE700A Δpdr1 tok1::PPDR5long-HXT7, RE700A Δpdr3 tok1::PPDR5long-HXT7 and RE700A Δpdr1,3 tok1::PPDR5long-HXT7 in the presence of 2-DG. Cells were incubated for 20 h at 28° C. with 2-DG at different concentrations. […] The standard error of the mean (n=5) is indicated.

Assay [2] deals with RE700A e PCDR2-HXT7 (ET[CDR2]). Nature of the assay: Growth inhibition of ET[CDR2] by 2-DG. Conditions: liquid media, 20 h 28° C., compared to growth in the absence of 2-DG. The protocol: FIG. 6: Growth inhibition of RE700A, ET[CDR1] and ET[CDR2] in the presence of increasing 2-DG concentrations after 20 h incubation at 28° C. for in liquid medium. RE700A, ET[CDR1] and ET[CDR2] were incubated 20 h at 28° C. with maltose (2% (w/v)) as the sole carbon source in the presence of increasing 2-DG concentrations in liquid medium. The optical density was measured at 600 nm semi-continuously every 15 minutes and the integral under the growth curve was calculated. Inhibition of growth is shown in percent compared to growth in the absence of 2-DG. Growth of ET[CDR1] was inhibited by 92% at a 2-DG concentration in liquid media of 0.05% (w/v), by 94% at a 2-DG concentration in liquid media of 0.075% (w/v), by 93% at a 2-DG concentration in liquid media of 0.1% (w/v) and by 95% at a 2-DG concentration of 0.2% (w/v). Growth of ET[CDR2] was inhibited by 50% at a 2-DG concentration in liquid media of 0.05% (w/v), by 70% at a 2-DG concentration in liquid media of 0.075% (w/v), by 70% at a 2-DG concentration in liquid media of 0.1% (w/v) and by 84% at a 2-DG concentration of 0.2% (w/v).
(2) Episomal screening system for inhibitors of PCDR2: S. cerevisiae strain RE700A was transformed with plasmids pY-PCDR2-HXT7 and pY-PCDR2-GFP yielding strains ET[CDR2] and CQ[CDR2] (for details see construction of strains and plasmids, for the complete genotype refer to Table 1). The inhibition of growth of ET[CDR2] by 2-DG was tested. The growth of this strain was inhibited to more than 80% at a 2-DG concentration of 0.2% (w/v) (FIG. 6). To screen for inhibitors of the PCDR2, the test strain ET[CDR2] can be incubated in selective YNB medium with 2% (w/v) maltose as the carbon source and 0.2% (w/v) 2-DG. Under these non-permissive conditions the growth of the test strain ET[CDR2] was inhibited when PCDR2 was active (FIG. 6).

For assay [3], the system named is RE700A i PCDR1-HXT7 (IT[CDR1]). Nature of the assay: Growth inhibition of IT[CDR1] by 2-DG. The settings on record: 20 h 28° C., maltose, regarding growth in the absence of 2-DG. As to the method:
FIG. 7: Growth inhibition of RE700A and IT[CDR1] by 2-DG. RE700A and IT[CDR1] were incubated for 20 h at 28° C. with maltose (2% (w/v)) as the sole carbon source and increasing 2-DG concentrations as indicated. The optical density was measured at 600 nm every 15 minutes and the integral under the growth curve was calculated. Inhibition of growth is shown in percent regarding growth in the absence of 2-DG. Growth of IT[CDR1] was inhibited by 45% at a 2-DG concentration of 0.01% (w/v), by 91% at a 2-DG concentration of 0.03% (w/v), by 92% at a 2-DG concentration of 0.05% (w/v), by 92% at a 2-DG concentration of 0.1% (w/v), by 94% at a 2-DG concentration of 1% (w/v), by 95% at a 2-DG concentration of 2% (w/v) and by 95% at a 2-DG concentration of 3% (w/v).
(3) Integrated screening system for inhibitors of PCDR1: S. cerevisiae strain RE700A was genetically modified as described in Example 1 and 2 to yield strain IT[CDR1], chromosomally expressing HXT7 under the control of the promoter of CDR1 (PCDR1) (for the complete genotype see Table 1). The inhibition of growth of IT[CDR1] by 2-DG was tested. The growth of this strain was inhibited by more than 90% at a 2-DG concentration of 0.03% (w/v) (FIG. 7)

In general, Inhibition of growth refers to the relative decrease from the control value, in per cent. A lower Inhibition of growth goes with a response near the control.

As for `O=CC[C@@H](O)[C@H](O)[C@H](O)CO` [2-DG, 2-deoxy-glucose], the “Sensitivity to 2-DG compared with the other PPDR5long-HXT7 strains” value in assay [1] (RE700A Δpdr1,3 tok1::PPDR5long-HXT7, 20 h 28° C., n=5) is recorded as “far less sensitive”. In addition, the “2-DG concentration for 50% growth inhibition” value in assay [1] (RE700A Δpdr1,3 tok1::PPDR5long-HXT7, liquid media, 20 h 28° C.) is 0.6 % (w/v). Moreover, the “Increase of tolerance to 2-DG” value in assay [1] (RE700A Δpdr1,3 tok1::PPDR5long-HXT7 versus RE700A Δpdr1 tok1::PPDR5long-HXT7) is on record as approximately 10 fold. Besides, the Inhibition of growth in assay [2] (0.05% (w/v) 2-DG) was 50%; in assay [2] (0.075% (w/v) 2-DG), 70%; in assay [2] (0.1% (w/v) 2-DG), 70%; in assay [3] (0.01% (w/v) 2-DG) it was 45%; in assay [3] (0.05% (w/v) 2-DG), 92%; in assay [3] (0.1% (w/v) 2-DG), 92%. The Inhibition of growth in assay [3] (1% (w/v) 2-DG) was 94%; in assay [3] (2% (w/v) 2-DG) it was 95%; in assay [3] (3% (w/v) 2-DG), 95%.
